According to patent US20250009745A1, “CDK INHIBITOR” (SHANGHAI QILU PHARMACEUTICAL RESEARCH AND DEVELOPMENT …, priority 2021, published 2025):

What was measured:
Experiment in all cases: CDK enzymology experiment in vitro, capillary mobility shift assay (MSA)
Format in all cases: biochemical
[1] = target: T1, CDK1 (Homo sapiens, UniProt P06493); conditions: read-out: CDK1 (nM) inhibitory IC50
T1 construct: purchased Carna Company
Method in brief: (§1)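 Recombinant kinases tested against peptide substrates in 1× kinase buffer, with compound added as a 100-fold DMSO stock. Top concentration 1, 10 or 30 μM, 3-fold dilutions over 10 points, in duplicate. Substrate conversion read by Caliper EZ Reader, normalised to no-enzyme and no-compound controls, and IC50 fitted with a variable-slope log(inhibitor)–response model.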

[2] = target: T2, CDK4 (Homo sapiens, UniProt P11802); conditions: read-out: CDK4 (nM) inhibitory IC50
T2 construct: purchased Carna Company
T2 sequence (P11802 whole entry): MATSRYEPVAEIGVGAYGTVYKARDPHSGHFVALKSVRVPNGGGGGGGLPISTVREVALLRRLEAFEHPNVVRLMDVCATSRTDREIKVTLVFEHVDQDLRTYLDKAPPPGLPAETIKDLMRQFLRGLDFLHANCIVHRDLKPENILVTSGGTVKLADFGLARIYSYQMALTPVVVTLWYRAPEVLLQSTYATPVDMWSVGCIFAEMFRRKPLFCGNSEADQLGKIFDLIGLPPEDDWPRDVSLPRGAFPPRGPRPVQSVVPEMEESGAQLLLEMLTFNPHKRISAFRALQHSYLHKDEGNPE
T2 sequence (P30281 whole entry partner): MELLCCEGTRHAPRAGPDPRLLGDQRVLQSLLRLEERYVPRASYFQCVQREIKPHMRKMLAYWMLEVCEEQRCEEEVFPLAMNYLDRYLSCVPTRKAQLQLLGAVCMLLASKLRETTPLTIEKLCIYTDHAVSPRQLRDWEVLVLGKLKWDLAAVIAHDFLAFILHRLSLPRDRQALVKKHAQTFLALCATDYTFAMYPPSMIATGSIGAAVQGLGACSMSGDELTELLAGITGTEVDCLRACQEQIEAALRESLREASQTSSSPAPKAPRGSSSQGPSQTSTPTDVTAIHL
Method in brief: as §1

[3] = target: T3, CDK2 (Homo sapiens, UniProt P24941); conditions: read-out: CDK2 (nM) inhibitory IC50
T3 construct: purchased Carna Company
Method in brief: as §1

[4] = target: T4, CDK6 (Homo sapiens, UniProt Q00534); conditions: read-out: CDK6 (nM) inhibitory IC50
T4 construct: purchased Carna Company
T4 sequence (Q00534 whole entry): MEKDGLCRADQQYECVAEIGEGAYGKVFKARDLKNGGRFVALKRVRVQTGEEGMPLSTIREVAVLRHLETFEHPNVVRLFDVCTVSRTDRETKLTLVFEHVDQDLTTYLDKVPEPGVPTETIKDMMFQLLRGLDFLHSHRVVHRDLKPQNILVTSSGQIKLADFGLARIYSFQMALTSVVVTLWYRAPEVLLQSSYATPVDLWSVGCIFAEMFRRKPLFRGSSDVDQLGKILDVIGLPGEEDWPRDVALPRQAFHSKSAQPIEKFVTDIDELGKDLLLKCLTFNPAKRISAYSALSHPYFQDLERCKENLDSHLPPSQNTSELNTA
T4 sequence (P30281 whole entry partner): as the sequence (P30281 whole entry partner) above
Procedure: CDK1/CDK2/CDK4/CDK6/CDK7/CDK9 were purchased from Carna Company; Carliper substrate CTD3/substrate 18/substrate 8 were purchased from Gil Biochemical Company; Dinaciclib/Palbociclib were purchased from Selleckchem Company; DMSO was purchased from Sigma Company; 384-well plates were purchased from Corning Company.
• (1) Preparation of 1×Kinase buffer. • (2) Preparation of compound concentration gradient: Test concentration of the test compound was started at 1 μM, 10 μM or 30 μM, 3-fold dilution, 10 concentrations, detected in duplicate. […] Liquid handler Echo 550 was used to transfer 250 nL of 100-fold final concentration of the compound to the target plate 384-well plate. […] The 384-well plate was centrifuged at 1000 rpm for 30 seconds, and shaken to mix uniformly. • (10) The conversion rate was read with Caliper EZ Reader.
Where, conversion %_sample is the readings of conversion rate of the sample; conversion %_min: the average value of negative control wells, representing the readings of conversion rate of wells without enzyme activity; conversion %_max: the average value of positive control wells, representing the readings of conversion rate of wells without compound inhibition.
Taking the log value of the concentration as the X-axis, and the percentage inhibition rate as the Y-axis, the dose-effect curve was fitted using the log(inhibitor) vs. response—Variable slope of the analysis software GraphPad Prism 5 so as to obtain the IC50 value of each compound on the enzyme activity.
Y=Bottom+(Top−Bottom)/(1+10^((Log IC50−X)*HillSlope)). Calculation formula: […]

[5] = target: T5, CDK9 (Homo sapiens, UniProt P50750); conditions: read-out: CDK9 (nM) inhibitory IC50
T5 construct: purchased Carna Company
T5 sequence (P50750 whole entry): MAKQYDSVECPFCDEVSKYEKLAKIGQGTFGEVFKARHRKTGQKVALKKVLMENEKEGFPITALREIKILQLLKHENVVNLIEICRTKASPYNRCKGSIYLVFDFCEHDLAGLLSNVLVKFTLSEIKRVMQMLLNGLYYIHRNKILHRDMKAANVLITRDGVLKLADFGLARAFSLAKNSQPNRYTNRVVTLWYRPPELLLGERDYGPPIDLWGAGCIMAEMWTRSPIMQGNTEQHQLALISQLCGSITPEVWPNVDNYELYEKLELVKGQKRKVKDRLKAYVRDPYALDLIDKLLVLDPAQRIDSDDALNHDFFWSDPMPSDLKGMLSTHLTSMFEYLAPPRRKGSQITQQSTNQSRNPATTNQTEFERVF
T5 sequence (O60563 whole entry partner): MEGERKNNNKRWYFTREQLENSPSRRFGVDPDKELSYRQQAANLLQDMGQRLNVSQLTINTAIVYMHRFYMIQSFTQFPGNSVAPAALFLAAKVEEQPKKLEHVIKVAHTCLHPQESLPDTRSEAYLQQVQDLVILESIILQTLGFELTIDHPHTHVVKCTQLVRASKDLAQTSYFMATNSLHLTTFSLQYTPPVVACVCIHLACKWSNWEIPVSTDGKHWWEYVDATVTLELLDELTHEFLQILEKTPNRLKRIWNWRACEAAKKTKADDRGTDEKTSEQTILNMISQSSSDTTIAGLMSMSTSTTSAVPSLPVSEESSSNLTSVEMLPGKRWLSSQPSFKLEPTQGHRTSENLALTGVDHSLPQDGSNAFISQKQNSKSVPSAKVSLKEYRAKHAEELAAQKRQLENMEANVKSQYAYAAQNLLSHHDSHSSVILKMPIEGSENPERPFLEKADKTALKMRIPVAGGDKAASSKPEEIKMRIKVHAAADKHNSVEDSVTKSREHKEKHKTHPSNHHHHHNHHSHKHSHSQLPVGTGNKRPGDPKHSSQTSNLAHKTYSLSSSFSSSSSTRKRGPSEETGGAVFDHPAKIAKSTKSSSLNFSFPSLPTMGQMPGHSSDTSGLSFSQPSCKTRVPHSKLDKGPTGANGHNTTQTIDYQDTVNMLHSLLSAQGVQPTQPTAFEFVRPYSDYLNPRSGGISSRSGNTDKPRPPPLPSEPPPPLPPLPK
Method in brief: as §1

[6] = target: T6, CDK7 (Homo sapiens, UniProt P50613); conditions: read-out: CDK7 (nM) inhibitory IC50
T6 construct: purchased Carna Company
T6 sequence (P50613 whole entry): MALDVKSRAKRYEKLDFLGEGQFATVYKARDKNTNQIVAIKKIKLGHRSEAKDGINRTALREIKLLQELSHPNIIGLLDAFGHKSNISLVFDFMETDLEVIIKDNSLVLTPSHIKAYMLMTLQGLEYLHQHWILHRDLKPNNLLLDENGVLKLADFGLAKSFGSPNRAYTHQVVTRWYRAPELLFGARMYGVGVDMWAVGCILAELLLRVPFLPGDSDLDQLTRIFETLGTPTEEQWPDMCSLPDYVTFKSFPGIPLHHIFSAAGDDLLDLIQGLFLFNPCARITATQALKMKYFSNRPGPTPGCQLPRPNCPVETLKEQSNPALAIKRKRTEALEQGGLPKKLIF
T6 sequence (P51946 whole entry partner): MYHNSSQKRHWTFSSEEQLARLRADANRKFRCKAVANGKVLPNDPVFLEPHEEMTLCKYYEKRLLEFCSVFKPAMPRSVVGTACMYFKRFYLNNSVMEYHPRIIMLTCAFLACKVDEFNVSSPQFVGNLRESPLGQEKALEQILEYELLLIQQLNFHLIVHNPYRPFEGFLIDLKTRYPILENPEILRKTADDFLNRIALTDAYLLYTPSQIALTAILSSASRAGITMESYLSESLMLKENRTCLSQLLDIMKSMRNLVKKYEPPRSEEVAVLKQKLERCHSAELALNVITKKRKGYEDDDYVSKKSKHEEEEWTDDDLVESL
T6 sequence (P51948 whole entry partner): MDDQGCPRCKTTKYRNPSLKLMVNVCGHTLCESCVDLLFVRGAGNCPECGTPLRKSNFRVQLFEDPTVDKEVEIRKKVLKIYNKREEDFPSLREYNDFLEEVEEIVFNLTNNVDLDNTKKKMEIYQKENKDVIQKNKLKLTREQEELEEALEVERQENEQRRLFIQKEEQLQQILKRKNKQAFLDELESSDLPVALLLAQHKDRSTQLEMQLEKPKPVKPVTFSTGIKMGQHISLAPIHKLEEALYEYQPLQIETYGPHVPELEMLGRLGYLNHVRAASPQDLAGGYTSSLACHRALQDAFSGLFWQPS
Method in brief: as §1

T1 sequence (P06493 whole entry): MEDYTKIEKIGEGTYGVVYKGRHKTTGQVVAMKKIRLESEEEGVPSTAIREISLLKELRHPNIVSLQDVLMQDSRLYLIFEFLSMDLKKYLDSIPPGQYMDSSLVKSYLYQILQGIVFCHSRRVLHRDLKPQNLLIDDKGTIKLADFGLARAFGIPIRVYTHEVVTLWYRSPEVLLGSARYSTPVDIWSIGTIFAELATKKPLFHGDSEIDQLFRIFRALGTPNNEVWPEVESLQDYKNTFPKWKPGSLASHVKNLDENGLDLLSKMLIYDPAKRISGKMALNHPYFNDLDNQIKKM
T1 sequence (P14635 whole entry partner): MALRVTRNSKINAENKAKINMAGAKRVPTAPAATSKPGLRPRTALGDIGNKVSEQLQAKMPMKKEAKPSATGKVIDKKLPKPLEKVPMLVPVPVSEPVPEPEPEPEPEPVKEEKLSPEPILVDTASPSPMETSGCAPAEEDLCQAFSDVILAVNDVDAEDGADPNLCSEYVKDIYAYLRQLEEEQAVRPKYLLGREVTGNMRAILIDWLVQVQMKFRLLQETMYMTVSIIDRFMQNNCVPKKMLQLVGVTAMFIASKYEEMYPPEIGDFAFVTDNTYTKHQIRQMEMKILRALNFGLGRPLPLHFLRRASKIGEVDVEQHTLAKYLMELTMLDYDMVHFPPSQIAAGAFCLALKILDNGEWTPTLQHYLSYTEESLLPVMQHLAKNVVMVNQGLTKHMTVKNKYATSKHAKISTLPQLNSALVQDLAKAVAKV

Row | SMILES | IC50 [1] | IC50 [2] | IC50 [3] | IC50 [4] | IC50 [5] | IC50 [6]
1 | Cn1cc(S(=O)(=O)N2CCC(Nc3ncc(C#N)c(N[C@H]4CC[C@@H](O)C4)n3)CC2)cn1 (racemic) [Example 11] | 10 to 50 nM | 10 to 50 nM | 0.5 to 2.5 nM | 10 to 50 nM |  | 
2 | O=S(=O)(c1ccc([C@@H]2CCNC2)cc1)N1CCC(Nc2ncc(C(F)(F)F)c(O[C@H]3CCOC3)n2)CC1 (single isomer, unassigned) [Compound 151] | 10 to 50 nM | 0.5 to 2.5 nM | 0.5 to 2.5 nM | 0.5 to 2.5 nM | 100 to 1000 nM | 10 to 50 nM
3 | O=S(=O)(c1ccc([C@H]2CCNC2)cc1)N1CCC(Nc2ncc(C(F)(F)F)c(O[C@H]3CCOC3)n2)CC1 (single isomer, unassigned) [Compound 152] | 2.5 to 10 nM | 0.5 to 2.5 nM | 0.5 to 2.5 nM | 0.5 to 2.5 nM | 100 to 1000 nM | 10 to 50 nM
4 | CC(C)Nc1nc(NC2CCN(S(C)(=O)=O)CC2)ncc1C#N [Compound 28] | 100 to 1000 nM | 50 to 100 nM | 10 to 50 nM | 50 to 100 nM |  | 
5 | Cn1cc(S(=O)(=O)N2CCC(Nc3ncc(C(F)(F)F)c(NC4CCCC4)n3)CC2)cn1 [Compound 32] | 10 to 50 nM | 10 to 50 nM | 0.5 to 2.5 nM | 10 to 50 nM |  | 
6 | Cn1cnc(S(=O)(=O)N2CCC(Nc3ncc(C(F)(F)F)c(NC4CCCC4)n3)CC2)c1 [Compound 35] | 10 to 50 nM | 10 to 50 nM | 0.5 to 2.5 nM | 50 to 100 nM |  | 
7 | Cn1cc(S(=O)(=O)N2CCC(Nc3ncc(C#N)c(N[C@@H]4CCC[C@H]4O)n3)CC2)cn1 [Compound 45] | 10 to 50 nM | 10 to 50 nM | 2.5 to 10 nM | 100 to 1000 nM |  | 
8 | Cn1cc(-c2ccc(S(=O)(=O)N3CCC(Nc4ncc(C#N)c(NC5CCCC5)n4)CC3)cc2)cn1 [Compound 49] | 10 to 50 nM | 2.5 to 10 nM | 0.5 to 2.5 nM | 0.5 to 2.5 nM |  | 
9 | C[C@@H]1CN(c2ccc(S(=O)(=O)N3CCC(Nc4ncc(C(F)(F)F)c(O[C@H]5CCOC5)n4)CC3)cc2)CCN1 [Compound 185] |  | 0.5 to 2.5 nM | < 0.5 nM | 0.5 to 2.5 nM |  | 
10 | C[C@H]1CN(c2ccc(S(=O)(=O)N3CCC(Nc4ncc(C(F)(F)F)c(O[C@H]5CCOC5)n4)CC3)cc2)CCN1 [Compound 186] |  | 0.5 to 2.5 nM | < 0.5 nM | 0.5 to 2.5 nM |  | 
11 | C[C@@H]1CN(c2ccc(S(=O)(=O)N3CCC(Nc4ncc(C(F)(F)F)c(O[C@H]5CCOC5)n4)CC3)cn2)CCN1 [Compound 187] |  | 0.5 to 2.5 nM | < 0.5 nM | 0.5 to 2.5 nM |  | 
12 | C[C@H]1CN(c2ccc(S(=O)(=O)N3CCC(Nc4ncc(C(F)(F)F)c(O[C@H]5CCOC5)n4)CC3)cn2)CCN1 [Compound 188] |  | 0.5 to 2.5 nM | < 0.5 nM | 0.5 to 2.5 nM |  | 
13 | O=S(=O)(c1ccc(N2C3CNCC2C3)nc1)N1CCC(Nc2ncc(C(F)(F)F)c(O[C@H]3CCOC3)n2)CC1 [Compound 189] |  | 0.5 to 2.5 nM | < 0.5 nM | 0.5 to 2.5 nM |  | 
14 | O=S(=O)(c1ccc(N2CC3CNCC3C2)nc1)N1CCC(Nc2ncc(C(F)(F)F)c(O[C@H]3CCOC3)n2)CC1 (some centres unmarked) [Compound 190] |  | 0.5 to 2.5 nM | < 0.5 nM | 0.5 to 2.5 nM |  | 
15 | O=S(=O)(c1ccc(N2CC3CNCC3C2)cc1)N1CCC(Nc2ncc(C(F)(F)F)c(O[C@H]3CCOC3)n2)CC1 (some centres unmarked) [Compound 191] |  | 0.5 to 2.5 nM | < 0.5 nM | 0.5 to 2.5 nM |  | 
16 | Cc1cc(S(=O)(=O)N2CCC(Nc3ncc(C(F)(F)F)c(O[C@H]4CCOC4)n3)CC2)ccc1C1CCCNC1 (some centres unmarked) [Compound 192] |  | 0.5 to 2.5 nM | < 0.5 nM | 0.5 to 2.5 nM |  | 
17 | O=S(=O)(c1ccc(C2CCCNC2)c(F)c1)N1CCC(Nc2ncc(C(F)(F)F)c(O[C@H]3CCOC3)n2)CC1 (some centres unmarked) [Compound 193] |  | 0.5 to 2.5 nM | < 0.5 nM | 0.5 to 2.5 nM |  | 
18 | COc1cc(S(=O)(=O)N2CCC(Nc3ncc(C(F)(F)F)c(O[C@H]4CCOC4)n3)CC2)ccc1C1=CCNCC1 [Compound 194] |  | 0.5 to 2.5 nM | 0.5 to 2.5 nM | 0.5 to 2.5 nM |  | 

Row | SMILES | IC50 [1] | IC50 [2] | IC50 [3] | IC50 [4] | IC50 [5] | IC50 [6]
19 | O=S(=O)(c1ccc(N2C3CCC2CNC3)cc1)N1CCC(Nc2ncc(C(F)(F)F)c(O[C@H]3CCOC3)n2)CC1 [Compound 195] |  | 0.5 to 2.5 nM | < 0.5 nM | 0.5 to 2.5 nM |  | 
20 | Cc1cc(S(=O)(=O)N2CCC(Nc3ncc(C(F)(F)F)c(O[C@H]4CCOC4)n3)CC2)ccc1C1=CCCNC1 [Compound 196] |  | 0.5 to 2.5 nM | < 0.5 nM | 0.5 to 2.5 nM |  | 
21 | C[C@H]1CNCCN1c1ccc(S(=O)(=O)N2CCC(Nc3ncc(C(F)(F)F)c(O[C@H]4CCOC4)n3)CC2)cc1 [Compound 198] |  | 0.5 to 2.5 nM | 0.5 to 2.5 nM | 0.5 to 2.5 nM |  | 
22 | O=S(=O)(c1ccc(Br)cc1)N1CCC(Nc2ncc(C(F)(F)F)c(C=C3CCCC3)n2)CC1 [Compound 200] |  | 100 to 1000 nM | 10 to 50 nM |  |  | 50 to 100 nM
23 | CN1CC=C(c2ccc(S(=O)(=O)N3CCC(Nc4ncc(C(F)(F)F)c(O[C@H]5CCOC5)n4)CC3)cc2)CC1 [Compound 203] |  | < 0.5 nM | < 0.5 nM | 0.5 to 2.5 nM |  | 
24 | CN1CCN(c2ccc(S(=O)(=O)N3CCC(Nc4ncc(C(F)(F)F)c(O[C@H]5CCOC5)n4)CC3)cc2)CC1 [Compound 204] |  | 0.5 to 2.5 nM | < 0.5 nM | 0.5 to 2.5 nM |  | 
25 | C[C@@H]1CN(c2ccc(S(=O)(=O)N3CCC(Nc4ncc(C(F)(F)F)c(O[C@H]5CCOC5)n4)CC3)cn2)C[C@@H](C)N1 [Compound 207] |  | 2.5 to 10 nM | 0.5 to 2.5 nM | 0.5 to 2.5 nM |  | 
26 | C[C@@H]1CN(c2ccc(S(=O)(=O)N3CCC(Nc4ncc(C(F)(F)F)c(O[C@H]5CCOC5)n4)CC3)cc2)C[C@@H](C)N1 [Compound 208] |  | 2.5 to 10 nM | 0.5 to 2.5 nM | 0.5 to 2.5 nM |  | 
27 | C[C@@H]1CN(c2ccc(S(=O)(=O)N3CCC(Nc4ncc(C(F)(F)F)c(O[C@@H]5CCOC5)n4)CC3)cc2)C[C@H](C)N1 [Compound 210] |  | 10 to 50 nM | 0.5 to 2.5 nM | 2.5 to 10 nM |  | 
28 | CS(=O)(=O)N1CCC(Nc2ncc(C#N)c(NC3CCCC3)n2)CC1 [Example 1] | 100 to 1000 nM | 10 to 50 nM | 10 to 50 nM | 10 to 50 nM |  | 
29 | CS(=O)(=O)N1CCC(Nc2cc(NC3CCCC3)c(C#N)cn2)CC1 [Example 2] | 100 to 1000 nM | 10 to 50 nM | 10 to 50 nM | 10 to 50 nM |  | 
30 | Cn1cc(S(=O)(=O)N2CCC(Nc3ncc(C#N)c(OC4CCCC4)n3)CC2)cn1 [Example 6, 4-(Cyclopentyloxy)-2-((1-((1-methyl-1H-pyrazol-4-yl)sulfonyl)piperidin-4-yl)amino)pyrimidine-5-carbonitrile] |  | 2.5 to 10 nM | < 0.5 nM | 0.5 to 2.5 nM |  | 
31 | CN1CC=C(c2ccc(S(=O)(=O)N3CCC(Nc4ncc(C#N)c(NC5CCCC5)n4)CC3)cc2)CC1 [Example 16, 4-(Cyclopentylamino)-2-((1-((4-(1-methyl-1,2,3,6-tetrahydropyridin-4-yl)phenyl)sulfonyl)piperidin-4-yl)amino)pyrimidine-5-carbonitrile] |  | 0.5 to 2.5 nM | 0.5 to 2.5 nM | 0.5 to 2.5 nM |  | 
32 | CN1CCC(c2ccc(S(=O)(=O)N3CCC(Nc4ncc(C#N)c(NC5CCCC5)n4)CC3)cc2)CC1 [Example 17, 4-(Cyclopentylamino)-2-((1-((4-(1-methylpiperidin-4-yl)phenyl)sulfonyl)piperidin-4-yl)amino)pyrimidine-5-carbonitrile] |  | 0.5 to 2.5 nM | 0.5 to 2.5 nM | 0.5 to 2.5 nM |  | 
33 | CN1CCN(c2ccc(S(=O)(=O)N3CCC(Nc4ncc(C#N)c(NC5CCCC5)n4)CC3)cc2)CC1 [Example 18, 4-(Cyclopentylamino)-2-((1-((4-(4-methylpiperazin-1-yl)phenyl)sulfonyl)piperidin-4-yl)amino)pyrimidine-5-carbonitrile] |  | 0.5 to 2.5 nM | 0.5 to 2.5 nM | 0.5 to 2.5 nM |  | 
34 | O=S(=O)(c1ccc(C2CCCNC2)cc1)N1CCC(Nc2ncc(C(F)(F)F)c(O[C@H]3CCOC3)n2)CC1 (stereo partly drawn) [Example 113, N-(1-((4-(Piperidin-3-yl)phenyl)sulfonyl)piperidin-4-yl)-4-(((S)-tetrahydrofuran-3-yl)oxy)-5-(trifluoromethyl)pyrimidin-2-amine] |  | 0.5 to 2.5 nM | 0.5 to 2.5 nM | 0.5 to 2.5 nM |  | 
35 | C[C@@H]1CN(c2ccc(S(=O)(=O)N3CCC(Nc4ncc(C(F)(F)F)c(O[C@H]5CCOC5)n4)CC3)cc2)C[C@H](C)N1 [Example 169] |  | 0.5 to 2.5 nM | < 0.5 nM | 0.5 to 2.5 nM |  | 
